{"source": "patent US6796312B2", "about": "“Process and apparatus for the removal of toxic components of tobacco smoke and the standardization of the health hazards related to those components” (priority 2001, dated 2004)", "key": {"[1]": {"tested_on": "caries", "settings": "hamsters in vivo; cited from earlier work"}, "[2]": {"experiment": "Non-enzymatic oxidation of NADH2 by aged NDGA solutions", "experimental": "Oxidation of reduced nicotinamide-adenine dinucleotide by nordihydroguaiaretic acid in the presence of PO4 buffer at pH 7.0 occurs at a slow rate, (See Burk and Woods (1963) and references to findings of […]. and […]. reported therein). Although this oxidation was very small under the conditions of experiment, an interaction correction factor was determined and applied to all reduced nicotinamide-adenine dinucleotide-nordihydroguaiaretic acid-mycloperoxidase assay reactions. [table] The effect of aging nordihydroguaiaretic acid solutions (0.5 mg. nordihydroguaiaretic acid dissolved in 0.02 ml. of ethyl alcohol plus 0.98 ml. of 0.15 Molar Na2HPO4.KH2PO4 buffer, pH 7.0) on the oxidation of reduced nicotinamide-adenine dinucleotide by nordihydroguaiaretic acid is shown above in Table VI. At 35° C., the latter undergoes a slow visible auto-oxidation change, from a near colorless solution (the reduced form of the orthoquinone) immediately after preparation, to a yellow brown colloidal suspension (probably the quinone form) with the yellow-brown material tending to precipitate slowly during the course of several hours. The sedimentation of nordihydroguaiaretic acid and its accumulation and adherence upon the inner glass surface of test tubes was avoided by shaking the solution periodically. The slow oxidation of reduced nicotinamide-adenine dinucleotide by nordihydroguaiaretic acid during the first forty-five (45) minutes can be more than twice the rate of subsequent time periods. Once the lowest rate of oxidation of reduced nicotinamide-adenine dinucleotide is achieved by the aging of nordihydroguaiaretic acid solutions, it remains constant for at least eight (8) hours."}, "[3]": {"tested_on": "Ehrlich carcinoma, Li210 mouse leukemia and other cancer cells", "settings": "in vivo and in vitro; cited from earlier work"}, "[4]": {"tested_on": "plant lipoxidase", "settings": "cited from earlier work"}, "[5]": {"biological_target": "squash ascorbic acid oxidase (Cucurbita pepo var. melopepo, UniProt P37064)", "sequence (P37064 whole entry)": "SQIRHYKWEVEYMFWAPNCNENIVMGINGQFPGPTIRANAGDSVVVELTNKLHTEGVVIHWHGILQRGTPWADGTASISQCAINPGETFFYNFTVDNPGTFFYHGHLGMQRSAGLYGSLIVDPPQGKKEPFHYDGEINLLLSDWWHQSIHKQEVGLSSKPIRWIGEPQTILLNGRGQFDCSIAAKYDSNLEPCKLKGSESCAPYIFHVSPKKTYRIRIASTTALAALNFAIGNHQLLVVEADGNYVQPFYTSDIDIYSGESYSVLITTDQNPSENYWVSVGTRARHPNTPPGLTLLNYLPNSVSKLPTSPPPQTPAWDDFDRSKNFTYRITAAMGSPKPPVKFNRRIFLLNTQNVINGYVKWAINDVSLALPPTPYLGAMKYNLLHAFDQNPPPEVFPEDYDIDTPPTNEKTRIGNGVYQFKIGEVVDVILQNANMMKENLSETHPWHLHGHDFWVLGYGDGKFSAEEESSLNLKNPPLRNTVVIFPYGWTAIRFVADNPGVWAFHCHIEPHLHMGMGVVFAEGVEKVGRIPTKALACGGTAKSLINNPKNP", "settings": "cited from earlier work"}, "[6]": {"biological_target": "T1, yeast alcohol dehydrogenase (Saccharomyces cerevisiae, UniProt P00330)", "T1 sequence (P00330 1-348)": "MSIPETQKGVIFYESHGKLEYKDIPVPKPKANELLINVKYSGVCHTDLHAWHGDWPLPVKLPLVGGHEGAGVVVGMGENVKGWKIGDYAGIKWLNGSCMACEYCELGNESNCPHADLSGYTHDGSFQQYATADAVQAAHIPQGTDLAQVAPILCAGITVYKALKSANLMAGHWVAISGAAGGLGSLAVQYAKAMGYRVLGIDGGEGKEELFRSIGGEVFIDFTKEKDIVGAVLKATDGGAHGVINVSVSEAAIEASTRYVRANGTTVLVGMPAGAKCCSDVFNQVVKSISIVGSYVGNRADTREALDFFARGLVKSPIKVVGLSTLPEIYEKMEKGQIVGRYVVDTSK", "settings": "2.7×10^−4 Molar (80 ppm); cited from earlier work"}, "[7]": {"tested_on": "human whole saliva", "settings": "low concentrations; cited from earlier work"}, "[8]": {"tested_on": "turnip peroxidase", "settings": "2.7×10^−4 Molar (80 ppm); cited from earlier work"}, "[9]": {"tested_on": "succinic oxidase and reduced nicotinamide-adenine dinucleotide oxidase", "experiment": "Respiratory chain of mouse heart homogenates", "type": "biochemical", "settings": "under certain conditions, Eichel unpublished"}, "[10]": {"tested_on": "rat liver cyclophorase", "settings": "2.7×10^−3 Molar (160 ppm); listed as nordihydroguaiaretic acid; cited from earlier work"}, "[11]": {"biological_target": "T2, pig heart D-amino acid oxidase (Sus scrofa, UniProt P00371)", "T2 construct": "host or cells: pig heart (so in the source)", "T2 sequence (P00371 whole entry)": "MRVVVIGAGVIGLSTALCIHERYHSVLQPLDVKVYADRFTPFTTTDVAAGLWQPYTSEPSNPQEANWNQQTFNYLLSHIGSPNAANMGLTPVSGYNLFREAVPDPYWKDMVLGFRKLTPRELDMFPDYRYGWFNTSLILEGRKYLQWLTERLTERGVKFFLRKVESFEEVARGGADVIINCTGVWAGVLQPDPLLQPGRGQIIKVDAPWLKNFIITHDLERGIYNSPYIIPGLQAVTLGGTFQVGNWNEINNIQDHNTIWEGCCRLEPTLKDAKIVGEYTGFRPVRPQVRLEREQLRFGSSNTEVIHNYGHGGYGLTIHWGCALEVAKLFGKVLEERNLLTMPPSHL", "settings": "2.7×10^−3 Molar (160 ppm); cited from earlier work"}, "[12]": {"biological_target": "jack bean urease (Canavalia ensiformis, UniProt P07374)", "sequence (P07374 whole entry, looked up)": "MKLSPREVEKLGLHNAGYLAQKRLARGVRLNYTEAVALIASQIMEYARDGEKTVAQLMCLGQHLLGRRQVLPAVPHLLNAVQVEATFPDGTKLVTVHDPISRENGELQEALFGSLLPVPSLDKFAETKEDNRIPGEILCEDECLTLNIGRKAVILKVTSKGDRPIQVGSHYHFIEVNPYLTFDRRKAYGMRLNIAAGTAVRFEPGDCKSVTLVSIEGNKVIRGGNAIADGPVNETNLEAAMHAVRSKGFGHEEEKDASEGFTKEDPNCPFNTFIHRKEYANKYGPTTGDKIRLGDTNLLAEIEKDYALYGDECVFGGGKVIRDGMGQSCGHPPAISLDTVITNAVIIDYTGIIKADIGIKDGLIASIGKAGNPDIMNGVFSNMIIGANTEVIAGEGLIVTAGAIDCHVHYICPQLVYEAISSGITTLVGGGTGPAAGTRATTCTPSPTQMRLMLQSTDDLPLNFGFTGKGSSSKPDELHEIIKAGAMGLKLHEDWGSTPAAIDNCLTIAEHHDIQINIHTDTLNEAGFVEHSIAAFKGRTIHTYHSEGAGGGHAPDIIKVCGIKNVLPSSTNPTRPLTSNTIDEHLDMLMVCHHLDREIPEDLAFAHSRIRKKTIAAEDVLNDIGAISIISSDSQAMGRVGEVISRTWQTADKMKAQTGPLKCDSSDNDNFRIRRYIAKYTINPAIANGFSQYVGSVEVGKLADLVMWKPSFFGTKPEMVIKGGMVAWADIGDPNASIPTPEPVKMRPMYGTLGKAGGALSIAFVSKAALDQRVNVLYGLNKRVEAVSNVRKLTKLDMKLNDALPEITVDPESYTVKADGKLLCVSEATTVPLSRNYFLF", "settings": "cited from earlier work"}}, "note": "“And” between values parts separate entries of the source, which are not always exact repeats. Identical values can stand only once."}
{"smiles": "CC(Cc1ccc(O)c(O)c1)C(C)Cc1ccc(O)c(O)c1", "note": "(stereo not drawn) [NDGA, beta, gamma-dimethyl-alpha, ortho-bis (3,4 dihydroxiphenyl) butane]", "values": [{"measurement": "anti-caries effect", "setting": "[1]", "result": "effective experimental anti-caries agent"}, {"measurement": "Rate of Oxidation of NADH2", "setting": "[2]; NDGA solution aged 10 minutes at 35° C., pH 7.0, Experiment 3", "result": ".017 Optical Density (O.D.) Units per 100 Seconds"}, {"measurement": "Rate of Oxidation of NADH2", "setting": "[2]; NDGA solution aged 15 minutes, Experiment 2", "result": ".020 Optical Density (O.D.) Units per 100 Seconds"}, {"measurement": "Rate of Oxidation of NADH2", "setting": "[2]; NDGA solution aged 45 minutes, Experiment 1", "result": ".027 Optical Density (O.D.) Units per 100 Seconds"}, {"measurement": "Rate of Oxidation of NADH2", "setting": "[2]; NDGA solution aged 60 minutes, Experiment 3", "result": ".013 Optical Density (O.D.) Units per 100 Seconds"}, {"measurement": "Rate of Oxidation of NADH2", "setting": "[2]; NDGA solution aged 110 minutes, Experiment 1", "result": ".011 Optical Density (O.D.) Units per 100 Seconds"}, {"measurement": "Rate of Oxidation of NADH2", "setting": "[2]; NDGA solution aged 120 minutes, Experiment 3", "result": ".011 Optical Density (O.D.) Units per 100 Seconds"}, {"measurement": "Rate of Oxidation of NADH2", "setting": "[2]; NDGA solution aged 140 minutes, Experiment 2", "result": ".014 Optical Density (O.D.) Units per 100 Seconds"}, {"measurement": "Rate of Oxidation of NADH2", "setting": "[2]; NDGA solution aged 175 minutes, Experiment 1", "result": ".012 Optical Density (O.D.) Units per 100 Seconds"}, {"measurement": "Rate of Oxidation of NADH2", "setting": "[2]; NDGA solution aged 180 minutes, Experiment 3", "result": ".012 Optical Density (O.D.) Units per 100 Seconds"}, {"measurement": "Rate of Oxidation of NADH2", "setting": "[2]; NDGA solution aged 215 minutes, Experiment 2", "result": ".014 Optical Density (O.D.) Units per 100 Seconds"}, {"measurement": "Rate of Oxidation of NADH2", "setting": "[2]; NDGA solution aged 240 minutes, Experiment 3", "result": ".012 Optical Density (O.D.) Units per 100 Seconds"}, {"measurement": "Rate of Oxidation of NADH2", "setting": "[2]; NDGA solution aged 270 minutes, Experiment 1", "result": ".011 Optical Density (O.D.) Units per 100 Seconds"}, {"measurement": "Rate of Oxidation of NADH2", "setting": "[2]; NDGA solution aged 285 minutes, Experiment 2", "result": ".014 Optical Density (O.D.) Units per 100 Seconds"}, {"measurement": "Rate of Oxidation of NADH2", "setting": "[2]; NDGA solution aged 323 minutes, Experiment 1", "result": ".011 Optical Density (O.D.) Units per 100 Seconds"}, {"measurement": "Rate of Oxidation of NADH2", "setting": "[2]; NDGA solution aged 380 minutes, Experiment 3", "result": ".011 Optical Density (O.D.) Units per 100 Seconds"}, {"measurement": "Rate of Oxidation of NADH2", "setting": "[2]; NDGA solution aged 440 minutes, Experiment 3", "result": ".011 Optical Density (O.D.) Units per 100 Seconds"}, {"measurement": "Rate of Oxidation of NADH2", "setting": "[2]; NDGA solution aged 485 minutes, Experiment 3", "result": ".010 Optical Density (O.D.) Units per 100 Seconds"}, {"measurement": "inhibition of the same metabolic activities in cancer cells", "setting": "[3]", "result": "similarly inhibited"}, {"measurement": "inhibition of plant lipoxidase-catalyzed oxidation and auto-oxidation of linoleate", "setting": "[4]", "result": "well-known inhibitor"}, {"measurement": "inhibition of squash ascorbic acid oxidase", "setting": "[5]", "result": 100, "unit": "%"}, {"measurement": "inhibition of yeast alcohol dehydrogenase", "setting": "[6]", "result": 71, "unit": "%"}, {"measurement": "inhibition of aerobic and anaerobic glycolysis", "setting": "[7]", "result": "markedly inhibited"}, {"measurement": "inhibition of endogenous and glucose dependent respiration", "setting": "[7]", "result": "nearly as effectively inhibited"}, {"measurement": "inhibition of turnip peroxidase", "setting": "[8]", "result": 71, "unit": "%"}, {"measurement": "inhibition of the respiratory chain (succinic oxidase, reduced nicotinamide-adenine dinucleotide oxidase)", "setting": "[9]", "result": "effective inhibitor"}, {"measurement": "inhibition of rat liver cyclophorase", "setting": "[10]", "result": "93% and 70%"}, {"measurement": "inhibition of pig heart D-amino acid oxidase", "setting": "[11]", "result": 99, "unit": "%"}, {"measurement": "inhibition of jack bean urease", "setting": "[12]", "result": 99, "unit": "%"}]}
